system: release of chemical mediators from cells; assay: not given; conditions: caused by an antigen-antibody reaction; cited from earlier work

Compound	inhibiting release of chemical mediators from cells
O=C(O)c1cc(=O)c2c(OCC(O)COc3cccc4oc(C(=O)O)cc(=O)c34)cccc2o1 [disodium chromoglycate]	effective for inhibiting release of chemical mediators from cells

system: experimental anaphylaxis / antiallergic effect; assay: not given; conditions: oral, mammalia; known reference compounds; cited from earlier work

Compound	antiallergic effect when administered orally
O=C(O)c1cc(=O)c2c(OCC(O)COc3cccc4oc(C(=O)O)cc(=O)c34)cccc2o1 [disodium chromoglycate]	not at all expected when this compound is administered orally
cinnamoylaminobenzoic acid [unsubstituted cinnamoylaminobenzoic acid]	only a slightly weak antiallergic effect

system: homologous passive cutaneous anaphylaxis (PCA); assay: Homologous passive cutaneous anaphylaxis (PCA) in rats, test compounds given orally; type: in vivo, Wistar male rats; conditions: po; rat, 200 mg/kg p.o., 2 hours prior to injection of antigen and Evans blue; read-out: INHIBITION (%) of PCA (amount of dye leaked vs control group)
Description: "Homologous passive cutaneous anaphylaxis (PCA) in rats."
Wistar male rats weighing from 120 to 150 g were used in the present experiment. Reaginic antibody was obtained from rats immunized with 2,4-dinitrophenyl-coupled ascaris extract (DNP-As) mixed with Bordetella pertussis. Normal rats were sensitized passively with an intradermal injection of the diluted antiserum. After 48 hours of the sensitization, the mixture of antigen (DNP-As) and Evans blue was injected intravenously. The animals were sacrificed by a blow on the head 30 minutes after challenging with antigen. The area blued as a result of PCA was excised and the amount of dye leaked was measured photometrically after the extraction of same with acetone containing sodium carbonate.
The test compounds were suspended in 0.5% aqueous solution of sodium carboxymethylcellulose (CMC) and administered 200 mg/kg p.o. 2 hours prior to the injection of a mixture of antigen and Evans blue. […] The efficacy of the test compounds to inhibit the PCA was compared with the value (%) calculated using the following formula: [formula] A: Amount of dye leaked in the control group B: Amount of dye leaked in the group treated with test compound

Compound	inhibition in vivo at 200 mg/kg [%]
O=C(C=Cc1ccccc1)Nc1cccc(C(=O)O)c1 [3-(cinnamoylamino)benzoic acid, reference compound]	10.8
O=C(O)Cc1cccc(NC(=O)C=Cc2ccccc2)c1 [3-(cinnamoylamino)phenylacetic acid]	39.8
COc1ccc(C=CC(=O)Nc2ccccc2OCC(=O)O)cc1OC [2-(3',4'-dimethoxycinnamoylamino)phenoxyacetic acid]	42.6
COc1ccc(C=CC(=O)Nc2cccc(CCC(=O)O)c2)cc1OC [β-[3-(3',4'-dimethoxycinnamoylamino)]phenylpropionic]	47.2
O=C(C=Cc1ccccc1)Nc1ccc(C(=O)O)cc1 [4-(cinnamoylamino)benzoic acid, reference compound]	7.5
O=C(O)Cc1ccccc1NC(=O)C=Cc1ccc(Cl)cc1 [2-(4'-chlorocinnamoylamino)phenylacetic acid]	53.3
COc1ccc(C(C)=CC(=O)Nc2ccccc2CC(=O)O)cc1OC [2-(3',4'-dimethoxy-β-methylcinnamoylamino)phenylacetic]	37.3
O=C(C=Cc1ccccc1)Nc1ccccc1C(=O)O [N-cinnamoyl-anthranilic acid, reference compound]	18.1
COc1ccc(CCC(=O)Nc2ccccc2OCC(=O)O)cc1OC [2-(3',4'-dimethoxyhydrocinnamoylamino)phenoxyacetic acid]	25.9
COc1ccc(C=CC(=O)Nc2ccccc2CCC(=O)O)cc1OC [β-[2-(3',4'-dimethoxycinnamoylamino)]phenylpropionic]	27
CCCOc1ccc(C=CC(=O)Nc2ccccc2OCC(=O)O)cc1OC [2-(3'-methoxy,4'-propoxycinnamoylamino)phenoxyacetic acid]	32.1
COc1ccc(C=CC(=O)Nc2ccccc2CC(=O)O)cc1OC [2-(3',4'-dimethoxycinnamoylamino)phenylacetic acid]	63.9
O=C(O)Cc1ccc(NC(=O)C=Cc2ccc(O)cc2)cc1 [4-(4'-hydroxycinnamoylamino)phenylacetic acid]	34.3
OCC(O)COc1ccc(Cl)cc1 (stereo not shown) [chlorphenesin, reference compound]	39.7

same assay, conditions: rat, 200 mg/kg p.o., 2 hours prior to injection of antigen and Evans blue

Compound	INHIBITION (%) of PCA (amount of dye leaked vs control group) [%]
COc1ccc(C=CC(=O)Nc2ccc(CC(=O)O)cc2)cc1 [4-(4'-methoxy-β-cinnamoylamino)phenylacetic acid]	85.3
Cc1ccc(C=CC(=O)Nc2ccc(OCC(=O)O)cc2)cc1 [β-[4-(4'-methylcinnamoylamino)]phenoxyacetic acid]	75.9
